Laboratory results from US10590140B2, “Tetrahydropyrimidodiazepine and dihydropyridodiazepine compounds for treating pain and pain related conditions” (ESTEVE PHARMACEUTICALS, S.A., priority 2016, dated 2020).

Target: human α2δ-1 subunit of Cav2.2 calcium channel (Homo sapiens (Human), UniProt P54289)
Assay: Binding assay to human α2δ-1 subunit of Cav2.2 calcium channel ([3H]-Gabapentin)
Conditions: binding to α2δ-1, [3H]-Gabapentin; read-out: Ki (nM) α2δ-1
Method in brief: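 [3H]-gabapentin binding, 60 min at 27° C; nonspecific binding defined with 10 μM pregabalin. Terminated by filtration on PEI-presoaked GF/C filters, ice-cold 50 mM Tris-HCl pH 7.4 washes, then scintillation counting.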

human α2δ-1 subunit of Cav2.2 calcium channel, sequence (P54289 25-1103): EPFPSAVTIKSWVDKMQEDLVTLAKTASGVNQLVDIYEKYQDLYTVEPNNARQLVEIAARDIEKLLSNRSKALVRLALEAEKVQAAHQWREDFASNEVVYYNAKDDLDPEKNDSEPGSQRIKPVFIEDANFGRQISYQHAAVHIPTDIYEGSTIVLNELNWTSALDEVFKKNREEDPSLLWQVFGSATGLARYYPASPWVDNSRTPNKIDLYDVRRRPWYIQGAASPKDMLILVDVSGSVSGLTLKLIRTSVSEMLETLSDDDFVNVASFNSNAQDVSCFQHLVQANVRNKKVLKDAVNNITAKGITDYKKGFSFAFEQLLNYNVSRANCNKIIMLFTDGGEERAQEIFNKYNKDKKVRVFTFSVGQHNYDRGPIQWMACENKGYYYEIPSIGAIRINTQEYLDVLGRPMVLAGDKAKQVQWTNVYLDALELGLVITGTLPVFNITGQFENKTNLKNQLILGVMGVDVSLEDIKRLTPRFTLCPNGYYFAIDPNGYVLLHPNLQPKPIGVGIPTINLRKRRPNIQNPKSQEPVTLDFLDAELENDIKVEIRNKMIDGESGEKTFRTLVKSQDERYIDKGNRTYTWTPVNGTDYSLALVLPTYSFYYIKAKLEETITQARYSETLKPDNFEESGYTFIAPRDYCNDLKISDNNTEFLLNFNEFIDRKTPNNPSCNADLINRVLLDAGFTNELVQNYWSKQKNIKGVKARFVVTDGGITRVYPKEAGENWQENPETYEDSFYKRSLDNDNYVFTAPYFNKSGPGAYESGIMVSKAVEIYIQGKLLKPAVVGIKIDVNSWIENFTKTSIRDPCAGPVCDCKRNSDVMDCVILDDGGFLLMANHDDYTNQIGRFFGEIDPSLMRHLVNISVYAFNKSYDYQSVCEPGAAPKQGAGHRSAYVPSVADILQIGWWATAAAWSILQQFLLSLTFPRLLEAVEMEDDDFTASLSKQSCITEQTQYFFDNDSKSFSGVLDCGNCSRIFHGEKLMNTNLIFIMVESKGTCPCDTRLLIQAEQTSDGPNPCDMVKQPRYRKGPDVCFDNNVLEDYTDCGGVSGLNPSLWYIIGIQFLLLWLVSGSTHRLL

| Compound | Ki [nM] |
| --- | --- |
| CCNc1ncc2c(n1)N(C)CCN(c1cccc(Cn3cc(CN(C)C(=O)OC(C)(C)C)nn3)c1)C2=O [Example 121, tert-butyl ((1-(3-(2-(ethylamino)-9-methyl-5-oxo-5,7,8,9-tetrahydro-6H-pyrimido[4,5-e][1,4]diazepin-6-yl)benzyl)-1H-1,2,3-triazol-4-yl)methyl)(methyl) carbamate] | > 3000 |
| CCNc1ncc2c(n1)N(C)CCN(c1cccc(-n3cc(CN(C)C(=O)OC(C)(C)C)cn3)c1)C2=O [Example 122, tert-butyl ((1-(3-(2-(ethylamino)-9-methyl-5-oxo-5,7,8,9-tetrahydro-6H-pyrimido[4,5-e][1,4]diazepin-6-yl)phenyl)-1H-pyrazol-4-yl)methyl)(methyl) carbamate] | > 3000 |
| CCNc1ncc2c(n1)N(C)CCN(c1cccc(-n3cnc(CN(C)C(=O)OC(C)(C)C)c3)c1)C2=O [Example 123, tert-butyl ((1-(3-(2-(ethylamino)-9-methyl-5-oxo-5,7,8,9-tetrahydro-6H-pyrimido[4,5-e][1,4]diazepin-6-yl)phenyl)-1H-imidazol-4-yl)methyl)(methyl) carbamate] | > 3000 |
| CCNc1ncc2c(n1)N(C)CCN(c1cccc(-c3nnc(CN(C)C(=O)OC(C)(C)C)o3)c1)C2=O [Example 124, tert-butyl ((5-(3-(2-(ethylamino)-9-methyl-5-oxo-5,7,8,9-tetrahydro-6H-pyrimido[4,5-e][1,4]diazepin-6-yl)phenyl)-1,3,4-oxadiazol-2-yl)methyl)(methyl) carbamate] | > 3000 |
| CCNc1ncc2c(n1)N(C)CCN(c1ccccc1OC(CCN(C)C(=O)OC(C)(C)C)c1ccccc1)C2=O (centres unmarked) [Example 125, tert-butyl (3-(2-(2-(ethylamino)-9-methyl-5-oxo-5,7,8,9-tetrahydro-6H-pyrimido[4,5-e][1,4]diazepin-6-yl)phenoxy)-3-phenylpropyl)(methyl) carbamate] | > 3000 |
| CCNc1ncc2c(n1)N(C)CCN(c1cccc(COC(CCN(C)C(=O)OC(C)(C)C)C(C)C)c1)C2=O (centres unmarked) [Example 126, tert-butyl (3-((3-(2-(ethylamino)-9-methyl-5-oxo-5,7,8,9-tetrahydro-6H-pyrimido[4,5-e][1,4]diazepin-6-yl)benzyl)oxy)-4-methylpentyl)(methyl) carbamate] | > 3000 |
| CCNc1ncc2c(n1)N(C)CCN(c1cccc(COC(C)CCN(C)C(=O)OC(C)(C)C)c1)C2=O (centres unmarked) [Example 127, tert-butyl (3-((3-(2-(ethylamino)-9-methyl-5-oxo-5,7,8,9-tetrahydro-6H-pyrimido[4,5-e][1,4]diazepin-6-yl)benzyl)oxy)butyl) (methyl)carbamate] | > 3000 |
| CCNc1ncc2c(n1)N(C)CCN(c1cccc(OC(CCN(C)C(=O)OC(C)(C)C)c3ccccn3)c1)C2=O (centres unmarked) [Example 128, tert-butyl (3-(3-(2-(ethylamino)-9-methyl-5-oxo-5,7,8,9-tetrahydro-6H-pyrimido[4,5-e][1,4]diazepin-6-yl)phenoxy)-3-(pyridin-2-yl)propyl)(methyl) carbamate] | > 3000 |
| CCNc1ncc2c(n1)N(C)CCN(c1cccc(OC(CCN(C)C(=O)OC(C)(C)C)c3cccnc3)c1)C2=O (centres unmarked) [Example 129, tert-butyl (3-(3-(2-(ethylamino)-9-methyl-5-oxo-5,7,8,9-tetrahydro-6H-pyrimido[4,5-e][1,4]diazepin-6-yl)phenoxy)-3-(pyridin-3-yl)propyl)(methyl) carbamate] | > 3000 |
| CN(CC[C@@H](OCc1cccc(N2CCN(C)c3nc(N)ncc3C2=O)c1)c1ccccc1)C(=O)OC(C)(C)C [Example 130, tert-butyl (R)-(3-((3-(2-amino-9-methyl-5-oxo-5,7,8,9-tetrahydro-6H-pyrimido[4,5-e][1,4]diazepin-6-yl)benzyl)oxy)-3-phenylpropyl)(methyl) carbamate] | > 3000 |
| CN(CC[C@@H](OCc1cccc(N2CCN(C)c3nc(N(C)C)ncc3C2=O)c1)c1ccccc1)C(=O)OC(C)(C)C [Example 131, tert-butyl (R)-(3-((3-(2-(dimethylamino)-9-methyl-5-oxo-5,7,8,9-tetrahydro-6H-pyrimido[4,5-e][1,4]diazepin-6-yl)benzyl)oxy)-3-phenylpropyl)(methyl) carbamate] | > 3000 |
| CNc1ncc2c(n1)N(C)CCN(c1cccc(CO[C@H](CCN(C)C(=O)OC(C)(C)C)c3ccccc3)c1)C2=O [Example 132, tert-butyl (R)-methyl(3-((3-(9-methyl-2-(methylamino)-5-oxo-5,7,8,9-tetrahydro-6H-pyrimido[4,5-e][1,4]diazepin-6-yl)benzyl)oxy)-3-phenylpropyl)carbamate] | > 3000 |
| CN(CCC(Oc1cccc(N2CCN(C)c3nc(N(C)C)ncc3C2=O)c1)c1cccs1)C(=O)OCC[Si](C)(C)C (centres unmarked) [Example 133, 2-(trimethylsilyl)ethyl (3-(3-(2-(dimethylamino)-9-methyl-5-oxo-5,7,8,9-tetrahydro-6H-pyrimido[4,5-e][1,4]diazepin-6-yl)phenoxy)-3-(thiophen-2-yl)propyl)(methyl) carbamate] | > 3000 |
| CCNc1ncc2c(n1)N(C)CCN(c1cccc(OC(CCN(CCF)C(=O)OC(C)(C)C)c3cccs3)c1)C2=O (centres unmarked) [Example 134, tert-butyl (3-(3-(2-(ethylamino)-9-methyl-5-oxo-5,7,8,9-tetrahydro-6H-pyrimido[4,5-e][1,4]diazepin-6-yl)phenoxy)-3-(thiophen-2-yl)propyl)(2-fluoroethyl)carbamate] | > 3000 |
| CCNc1ncc2c(n1)N(C)CCN(Cc1cccc(OC(CN(C)C(=O)OC(C)(C)C)c3ccccc3)c1)C2=O (centres unmarked) [Example 135, tert-butyl (2-(3-((2-(ethylamino)-9-methyl-5-oxo-5,7,8,9-tetrahydro-6H-pyrimido[4,5-e][1,4]diazepin-6-yl)methyl)phenoxy)-2-phenylethyl)(methyl) carbamate] | > 3000 |
| CCNc1ncc2c(n1)N(C)CCN(Cc1ccc(OC(CN(C)C(=O)OC(C)(C)C)c3ccccc3)cc1)C2=O (centres unmarked) [Example 136, tert-butyl (2-(4-((2-(ethylamino)-9-methyl-5-oxo-5,7,8,9-tetrahydro-6H-pyrimido[4,5-e][1,4]diazepin-6-yl)methyl)phenoxy)-2-phenylethyl)(methyl) carbamate] | > 3000 |
| CCNc1ncc2c(n1)N(C)CCN(Cc1ccc(CN(C)C(=O)OC(C)(C)C)cc1)C2=O [Example 137, tert-butyl (4-((2-(ethylamino)-9-methyl-5-oxo-5,7,8,9-tetrahydro-6H-pyrimido[4,5-e][1,4]diazepin-6-yl)methyl)benzyl) (methyl)carbamate] | > 3000 |
| COc1ncc2c(n1)N(C)CCN(c1cccc(CO[C@H](CCN(C)C(=O)OC(C)(C)C)c3ccccc3)c1)C2=O [Example 138, tert-Butyl (R)-(3-((3-(2-methoxy-9-methyl-5-oxo-5,7,8,9-tetrahydro-6H-pyrimido[4,5-e][1,4]diazepin-6-yl)benzyl)oxy)-3-phenylpropyl)(methyl)carbamate] | > 3000 |
| COc1ncc2c(n1)N(C)CCN(c1cccc(COC(CCN(C)C(=O)OC(C)(C)C)c3cccs3)c1)C2=O (centres unmarked) [Example 139, tert-butyl (3-((3-(2-methoxy-9-methyl-5-oxo-5,7,8,9-tetrahydro-6H-pyrimido[4,5-e][1,4]diazepin-6-yl)benzyl)oxy)-3-(thiophen-2-yl)propyl)(methyl)carbamate] | > 3000 |
| CN(CC[C@@H](OCc1cccc(N2CCN(C)c3nc(O)ncc3C2=O)c1)c1ccccc1)C(=O)OC(C)(C)C [Example 140, tert-Butyl (R)-(3-((3-(2-hydroxy-9-methyl-5-oxo-5,7,8,9-tetrahydro-6H-pyrimido[4,5-e][1,4]diazepin-6-yl)benzyl)oxy)-3-phenylpropyl)(methyl)carbamate] | > 3000 |
| CN(CCC(OCc1cccc(N2CCN(C)c3nc(O)ncc3C2=O)c1)c1cccs1)C(=O)OC(C)(C)C (centres unmarked) [Example 141, tert-butyl (3-((3-(2-hydroxy-9-methyl-5-oxo-5,7,8,9-tetrahydro-6H-pyrimido[4,5-e][1,4]diazepin-6-yl)benzyl)oxy)-3-(thiophen-2-yl)propyl)(methyl)carbamate] | > 3000 |
| Cc1ncc2c(n1)N(C)CCN(c1cccc(CO[C@H](CCN(C)C(=O)OC(C)(C)C)c3ccccc3)c1)C2=O [Example 142, tert-Butyl (R)-(3-((3-(2,9-dimethyl-5-oxo-5,7,8,9-tetrahydro-6H-pyrimido[4,5-e][1,4]diazepin-6-yl)benzyl)oxy)-3-phenylpropyl)(methyl)carbamate] | > 3000 |
| Cc1ncc2c(n1)N(C)CCN(c1cccc(COC(CCN(C)C(=O)OC(C)(C)C)c3cccs3)c1)C2=O (centres unmarked) [Example 143, tert-butyl (3-((3-(2,9-dimethyl-5-oxo-5,7,8,9-tetrahydro-6H-pyrimido[4,5-e][1,4]diazepin-6-yl)benzyl)oxy)-3-(thiophen-2-yl)propyl)(methyl) carbamate] | > 3000 |
| Cc1ncc2c(n1)N(C)CCN(c1cccc(OC(CCN(C)C(=O)OCC[Si](C)(C)C)c3cccs3)c1)C2=O (centres unmarked) [Example 144, 2-(trimethylsilyl)ethyl (3-(3-(2,9-dimethyl-5-oxo-5,7,8,9-tetrahydro-6H-pyrimido[4,5-e][1,4]diazepin-6-yl)phenoxy)-3-(thiophen-2-yl)propyl)(methyl) carbamate] | > 3000 |
| CN(CC[C@@H](OCc1cccc(N2CCN(C)c3ncncc3C2=O)c1)c1ccccc1)C(=O)OC(C)(C)C [Example 145, tert-Butyl (R)-methyl(3-((3-(9-methyl-5-oxo-5,7,8,9-tetrahydro-6H-pyrimido[4,5-e][1,4]diazepin-6-yl)benzyl)oxy)-3-phenylpropyl)carbamate] | > 3000 |
| CN(CCC(OCc1cccc(N2CCN(C)c3ncncc3C2=O)c1)c1cccs1)C(=O)OC(C)(C)C (centres unmarked) [Example 146, tert-butyl methyl(3-((3-(9-methyl-5-oxo-5,7,8,9-tetrahydro-6H-pyrimido[4,5-e][1,4]diazepin-6-yl)benzyl)oxy)-3-(thiophen-2-yl)propyl)carbamate] | > 3000 |
